Test results reported in patent publication US20100047332A1, “Treatments for burns using thyroid hormone compound in a human” (priority 2005, published 2010).

Key:
TSH = details: topically applied, humans; cited from earlier work
rat = details: cited from earlier work
[1] = system: second degree partial thickness scald burn; experiment: TriAc cream applied intermittently to a scalding burn in a burn patient; format: in vivo, human
Description: The water content was 65 to 75%, with approximately 30% solids. The semi solid cream formulation includes water, emulsifier, aloe vera, and less than 1% of d-tocopherol acetate or equivalent, panthenol, and retinyl palmitate.
On scalding burn day 0, ice was applied all night. The wound appeared as a large reddish area approximately 15 by 30 cm, with an area of white skin approximately 10 by 10 cm. The cream was applied to the entire area in an amount of much less than 1 gm (less than 80 μg per 400 cm^2) on the evening of Day 1, 24 hours post burn. The worst blistering and numbness was over the whitish area. Over the next 48 hours, the wound became somewhat less painful and the white area started to become pink and then red. The outer area extending over the knee remained red. This burn was therefore a split thickness second degree burn with areas of third degree burn.
The cream was applied again on the evening of Day 3, 72 hours post burn, only to a small area of most burned blistered skin over the original whitish area. […] Prior to application of the cream, the entire area was brilliantly red.
The cream was applied again on the evening of Day 4 over the entire area during this application. […] The entire area of the burn now had brownish epidermis in the process of being sloughed. […] FIGS. 1 and 2 are separated by approximately 36 hours.
This is six 24 hour periods from the time of the burn. […] The outline of the burn injury can clearly be seen by examining the margins of the wound.

Question: Which “effect on TSH levels or other thyroid hormone function tests” value (TSH) does the source give for O=C(O)Cc1cc(I)c(Oc2ccc(O)c(I)c2)c(I)c1 [TriAc, [4-(4-hydroxy-3-iodophenoxy)-3,5-diiodophenyl]acetic acid] here?
Answer: no effect on TSH levels

Question: And the “amount needed to make a 200 gm rat hyperthyroid” value (rat)?
Answer: approximately 7 micrograms

Question: What about the “pain in the small treated area” value ([1]; 24 hours after Day 3 application) of the same compound?
Answer: greatly diminished

Question: And the “increase in healing rate” value ([1]; about 1/20th to 1/40th of a normal daily replacement dose, intermittent)?
Answer: greater than 100%

Question: And the pigmentation or scar ([1]; after 1.5 years)?
Answer: no pigmentation or scar

Question: What about the pain ([1]; after application over entire area on Day 4) of the same compound?
Answer: All pain was resolved overnight

Question: And the erythema and tenderness ([1]; applied Day 3 to a small area, only where applied)?
Answer: decrease in erythema and tenderness

Question: And the “healing rate of a burn” value ([1]; applied twice, less than 80 μg per 400 cm^2, versus time course in medical literature)?
Answer: approximately doubled the healing rate

Question: What about the “effect of the first application” value ([1]; cream applied to entire area on Day 1, observed over next 48 hours) of the same compound?
Answer: no visible or other obvious indications that the first application had any effect

Question: What about the “signs of inflammation or infection in the wound” value ([1]; day 5) of the same compound?
Answer: no signs of inflammation or infection

Question: What about the “re-epithelialization of the skin” value ([1]; day 5, 20 hours after second application to entire area) of the same compound?
Answer: virtually completely re-epithelialized

Question: And the “time to complete re-epithelialization” value ([1]; post scald second degree partial thickness burn)?
Answer: five to six 24 hour periods

Question: And the “healing time versus average prior art healing time” value ([1]; prior art 19 days)?
Answer: fourteen days less than the average prior art healing time of 19 days
